The values that follow come from ChEMBL document CHEMBL5113525, “Discovery of the Novel 1H-Pyrrolo[2,3-b]pyridine Derivative as a Potent Type II CDK8 Inhibitor against Colorectal Cancer” (J Med Chem, 2022).

Activity calls are given as the source filed them. The calls are words filed in the database; no cut-off is given here.

Data set [1] deals with Cyclin-dependent kinase 8 (Mus musculus) (UniProt Q8R3L8). The data set can be described thus: Inhibition of CDK8 in mouse BMDC cells assessed as reduction in IFNgamma-induced STAT1 phosphorylation at S727 residue pretreated with IFNgamma for 2 hrs followed by compound treatment for 24 hrs by Western blot assay. The class given is cell-based. A general note: In western blotting, separated proteins are transferred to a membrane and probed.
Cyclin-dependent kinase 8 (Mus musculus), sequence (Q8R3L8 whole entry): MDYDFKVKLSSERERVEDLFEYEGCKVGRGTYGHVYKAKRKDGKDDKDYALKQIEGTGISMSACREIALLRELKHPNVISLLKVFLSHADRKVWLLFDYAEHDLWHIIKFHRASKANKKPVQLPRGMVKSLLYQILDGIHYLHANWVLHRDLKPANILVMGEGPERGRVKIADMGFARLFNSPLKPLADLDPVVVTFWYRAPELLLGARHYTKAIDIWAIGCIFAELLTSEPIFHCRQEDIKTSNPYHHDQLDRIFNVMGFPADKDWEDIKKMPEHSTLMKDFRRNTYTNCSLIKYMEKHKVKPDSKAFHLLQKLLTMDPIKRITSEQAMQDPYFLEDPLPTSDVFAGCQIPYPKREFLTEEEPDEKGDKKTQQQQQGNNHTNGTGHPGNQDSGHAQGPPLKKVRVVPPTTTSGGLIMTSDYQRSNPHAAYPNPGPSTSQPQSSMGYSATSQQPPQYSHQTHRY

The nature of data set [2]: MRT in Sprague-Dawley rat at 5 mg/kg, iv measured upto 12 hrs by LC-MS/MS analysis. The data set is classed as ADME, organism-based. The note with it: in vivo.
The nature of data set [3]: Cmax in Sprague-Dawley rat at 10 mg/kg, po measured upto 12 hrs by LC-MS/MS analysis. The data set is classed as ADME, organism-based. Further details: time < 12 hrs, dose 10 mg/kg, route po. The note with it: in vivo.
Data set [4] can be described thus: AUC(0 to infinity) in Sprague-Dawley rat at 10 mg/kg, po measured upto 12 hrs by LC-MS/MS analysis. Set-up: dose 10 mg/kg, time < 12 hrs, route po. The class given is ADME, organism-based. The note with it: in vivo.
In data set [5] the target is Dual specificity protein kinase CLK1 (Homo sapiens) (UniProt P49759). The data set can be described thus: Inhibition of human CLK1 at 1 uM relative to control.
Dual specificity protein kinase CLK1 (Homo sapiens), sequence (P49759 whole entry, looked up): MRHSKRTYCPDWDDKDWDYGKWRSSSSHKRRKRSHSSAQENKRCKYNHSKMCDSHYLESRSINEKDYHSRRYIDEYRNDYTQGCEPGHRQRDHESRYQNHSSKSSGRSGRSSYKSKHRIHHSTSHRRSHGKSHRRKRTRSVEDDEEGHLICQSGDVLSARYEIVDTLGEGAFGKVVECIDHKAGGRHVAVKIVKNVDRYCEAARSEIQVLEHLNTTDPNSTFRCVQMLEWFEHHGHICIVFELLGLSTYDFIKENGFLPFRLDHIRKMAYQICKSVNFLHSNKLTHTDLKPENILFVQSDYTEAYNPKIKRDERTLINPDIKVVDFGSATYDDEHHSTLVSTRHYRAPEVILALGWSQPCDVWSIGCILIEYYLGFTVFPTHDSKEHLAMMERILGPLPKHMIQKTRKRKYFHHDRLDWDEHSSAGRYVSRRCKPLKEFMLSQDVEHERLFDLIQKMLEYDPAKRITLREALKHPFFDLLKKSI
Data set [6] has as its target Vascular endothelial growth factor receptor 1 (Homo sapiens) (UniProt P17948). The data set is described as follows: Inhibition of human FLT1 at 1 uM relative to control.
Data set [7] has as its target Glycogen synthase kinase-3 alpha (Homo sapiens) (UniProt P49840). The data set is described as follows: Inhibition of human GSK3A at 1 uM relative to control.
Data set [8] deals with Glycogen synthase kinase-3 beta (Homo sapiens) (UniProt P49841). The data set is described as follows: Inhibition of human GSK3B at 1 uM relative to control.
The target of data set [9] is Mitogen-activated protein kinase 8 (Homo sapiens) (UniProt P45983). The data set can be described thus: Inhibition of human JNK1-alpha-1 at 1 uM relative to control.
Data set [10] deals with Mitogen-activated protein kinase 10 (Homo sapiens) (UniProt P53779). The data set is described as follows: Inhibition of human JNK3 at 1 uM relative to control.
Mitogen-activated protein kinase 10 (Homo sapiens), sequence (P53779 whole entry): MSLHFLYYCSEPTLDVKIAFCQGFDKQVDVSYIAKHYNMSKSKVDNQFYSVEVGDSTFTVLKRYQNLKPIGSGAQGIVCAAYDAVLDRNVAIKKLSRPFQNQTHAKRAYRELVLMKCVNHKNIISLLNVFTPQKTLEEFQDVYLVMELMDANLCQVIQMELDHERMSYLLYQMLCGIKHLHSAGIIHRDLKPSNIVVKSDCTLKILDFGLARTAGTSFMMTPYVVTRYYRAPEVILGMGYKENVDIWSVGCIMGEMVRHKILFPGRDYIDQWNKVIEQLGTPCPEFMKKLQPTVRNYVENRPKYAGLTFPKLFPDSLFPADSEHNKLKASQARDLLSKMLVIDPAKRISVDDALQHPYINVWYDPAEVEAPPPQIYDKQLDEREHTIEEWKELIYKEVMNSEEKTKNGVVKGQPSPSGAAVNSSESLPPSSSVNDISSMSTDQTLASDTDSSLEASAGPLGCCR
For data set [11], the target named is Tyrosine-protein kinase Lck (Homo sapiens) (UniProt P06239). The data set is described as follows: Inhibition of human LCK at 1 uM relative to control.
Tyrosine-protein kinase Lck (Homo sapiens), sequence (P06239 2-509 limits assumed): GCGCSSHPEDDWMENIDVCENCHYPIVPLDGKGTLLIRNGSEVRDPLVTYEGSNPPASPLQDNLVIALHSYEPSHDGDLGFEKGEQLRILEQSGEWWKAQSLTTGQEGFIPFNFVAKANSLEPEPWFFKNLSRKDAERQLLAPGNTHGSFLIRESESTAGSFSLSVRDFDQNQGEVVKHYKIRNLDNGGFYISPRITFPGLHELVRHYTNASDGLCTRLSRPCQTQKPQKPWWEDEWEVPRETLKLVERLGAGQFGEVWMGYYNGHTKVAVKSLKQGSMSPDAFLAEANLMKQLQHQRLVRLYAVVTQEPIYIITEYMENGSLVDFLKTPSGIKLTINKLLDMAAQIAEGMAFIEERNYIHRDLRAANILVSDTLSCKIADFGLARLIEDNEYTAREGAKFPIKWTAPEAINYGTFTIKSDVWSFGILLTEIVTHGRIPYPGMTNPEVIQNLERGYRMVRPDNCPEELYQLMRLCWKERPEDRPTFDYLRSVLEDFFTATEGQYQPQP
For data set [12], the target named is LIM domain kinase 1 (Homo sapiens) (UniProt P53667). The data set can be described thus: Inhibition of human LIMK1 at 1 uM relative to control.
The target in data set [13] is Tyrosine-protein kinase Lyn (Homo sapiens) (UniProt P07948). The data set is described as follows: Inhibition of human LYN at 1 uM relative to control.
The target of data set [14] is Tyrosine-protein kinase Mer (Homo sapiens) (UniProt Q12866). The data set can be described thus: Inhibition of human MER at 1 uM relative to control.
The target in data set [15] is Mitogen-activated protein kinase kinase kinase 10 (Homo sapiens) (UniProt Q02779). The data set can be described thus: Inhibition of human MLK2 at 1 uM relative to control.
Mitogen-activated protein kinase kinase kinase 10 (Homo sapiens), sequence (Q02779 whole entry, looked up): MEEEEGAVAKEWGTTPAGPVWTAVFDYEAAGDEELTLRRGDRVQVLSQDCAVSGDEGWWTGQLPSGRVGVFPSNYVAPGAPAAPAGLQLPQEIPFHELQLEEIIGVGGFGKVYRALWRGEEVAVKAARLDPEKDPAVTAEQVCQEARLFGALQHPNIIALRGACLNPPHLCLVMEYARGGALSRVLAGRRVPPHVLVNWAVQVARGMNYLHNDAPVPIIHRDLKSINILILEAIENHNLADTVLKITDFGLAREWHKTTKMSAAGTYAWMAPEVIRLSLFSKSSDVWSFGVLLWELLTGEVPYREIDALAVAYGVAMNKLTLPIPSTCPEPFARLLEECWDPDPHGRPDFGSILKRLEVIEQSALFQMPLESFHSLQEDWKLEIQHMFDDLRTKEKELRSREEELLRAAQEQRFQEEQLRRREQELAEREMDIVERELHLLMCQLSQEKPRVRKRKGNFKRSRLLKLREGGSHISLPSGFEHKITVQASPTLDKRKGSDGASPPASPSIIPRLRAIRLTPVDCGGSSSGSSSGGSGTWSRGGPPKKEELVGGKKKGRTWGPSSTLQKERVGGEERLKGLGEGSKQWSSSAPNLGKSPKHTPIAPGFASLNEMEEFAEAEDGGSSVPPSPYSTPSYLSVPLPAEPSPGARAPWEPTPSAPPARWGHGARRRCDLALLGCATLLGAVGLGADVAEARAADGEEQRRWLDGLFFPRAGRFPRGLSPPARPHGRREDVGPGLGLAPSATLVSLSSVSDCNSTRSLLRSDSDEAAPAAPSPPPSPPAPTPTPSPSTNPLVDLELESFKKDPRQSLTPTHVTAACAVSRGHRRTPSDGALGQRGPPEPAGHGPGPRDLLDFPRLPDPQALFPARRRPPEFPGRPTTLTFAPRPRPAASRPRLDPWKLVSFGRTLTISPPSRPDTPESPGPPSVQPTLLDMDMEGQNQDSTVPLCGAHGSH
The target in data set [16] is Mitogen-activated protein kinase kinase kinase 11 (Homo sapiens) (UniProt Q16584). The data set can be described thus: Inhibition of human MLK3 at 1 uM relative to control.
Mitogen-activated protein kinase kinase kinase 11 (Homo sapiens), sequence (Q16584 whole entry, looked up): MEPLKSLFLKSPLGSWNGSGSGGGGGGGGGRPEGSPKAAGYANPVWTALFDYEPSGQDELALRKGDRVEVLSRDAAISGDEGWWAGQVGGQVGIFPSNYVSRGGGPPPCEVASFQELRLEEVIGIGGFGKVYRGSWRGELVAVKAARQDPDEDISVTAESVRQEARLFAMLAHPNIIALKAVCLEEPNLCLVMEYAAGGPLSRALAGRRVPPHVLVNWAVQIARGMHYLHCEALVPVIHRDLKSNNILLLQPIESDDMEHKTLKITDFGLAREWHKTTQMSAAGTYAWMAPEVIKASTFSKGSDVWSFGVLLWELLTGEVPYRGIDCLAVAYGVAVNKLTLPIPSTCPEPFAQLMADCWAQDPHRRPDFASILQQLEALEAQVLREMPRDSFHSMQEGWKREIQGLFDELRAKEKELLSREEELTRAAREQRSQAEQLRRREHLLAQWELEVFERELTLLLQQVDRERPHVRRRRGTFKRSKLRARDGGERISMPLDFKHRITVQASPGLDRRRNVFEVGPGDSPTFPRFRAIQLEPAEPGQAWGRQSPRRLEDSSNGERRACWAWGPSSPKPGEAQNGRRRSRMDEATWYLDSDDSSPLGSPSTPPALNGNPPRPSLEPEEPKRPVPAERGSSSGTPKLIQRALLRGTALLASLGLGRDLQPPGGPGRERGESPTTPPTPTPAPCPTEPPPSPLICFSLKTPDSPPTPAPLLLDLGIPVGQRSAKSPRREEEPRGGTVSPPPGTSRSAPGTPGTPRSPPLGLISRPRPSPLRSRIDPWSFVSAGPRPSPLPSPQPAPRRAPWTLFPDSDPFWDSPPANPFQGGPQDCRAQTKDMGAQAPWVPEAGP
Data set [17] concerns the target Mitogen-activated protein kinase kinase kinase 21 (Homo sapiens) (UniProt Q5TCX8). The data set is described as follows: Inhibition of human MLK4 at 1 uM relative to control.
Data set [18] deals with MAP kinase-interacting serine/threonine-protein kinase 2 (Homo sapiens) (UniProt Q9HBH9). The data set can be described thus: Inhibition of human MNK2 at 1 uM relative to control.
MAP kinase-interacting serine/threonine-protein kinase 2 (Homo sapiens), sequence (Q9HBH9 whole entry, looked up): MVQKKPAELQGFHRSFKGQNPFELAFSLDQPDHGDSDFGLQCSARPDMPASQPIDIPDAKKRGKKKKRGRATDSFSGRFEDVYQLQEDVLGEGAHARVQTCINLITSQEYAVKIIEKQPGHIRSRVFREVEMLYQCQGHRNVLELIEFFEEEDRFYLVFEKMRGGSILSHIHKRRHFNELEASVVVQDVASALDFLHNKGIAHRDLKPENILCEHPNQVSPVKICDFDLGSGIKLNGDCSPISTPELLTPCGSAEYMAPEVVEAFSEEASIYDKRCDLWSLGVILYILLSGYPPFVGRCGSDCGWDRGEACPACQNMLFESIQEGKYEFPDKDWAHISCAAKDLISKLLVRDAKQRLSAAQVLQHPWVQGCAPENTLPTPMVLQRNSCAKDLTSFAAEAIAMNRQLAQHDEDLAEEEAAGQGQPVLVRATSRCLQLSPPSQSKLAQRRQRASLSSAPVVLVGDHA

Glycogen synthase kinase-3 alpha (Homo sapiens), sequence (P49840 2-483 limits assumed): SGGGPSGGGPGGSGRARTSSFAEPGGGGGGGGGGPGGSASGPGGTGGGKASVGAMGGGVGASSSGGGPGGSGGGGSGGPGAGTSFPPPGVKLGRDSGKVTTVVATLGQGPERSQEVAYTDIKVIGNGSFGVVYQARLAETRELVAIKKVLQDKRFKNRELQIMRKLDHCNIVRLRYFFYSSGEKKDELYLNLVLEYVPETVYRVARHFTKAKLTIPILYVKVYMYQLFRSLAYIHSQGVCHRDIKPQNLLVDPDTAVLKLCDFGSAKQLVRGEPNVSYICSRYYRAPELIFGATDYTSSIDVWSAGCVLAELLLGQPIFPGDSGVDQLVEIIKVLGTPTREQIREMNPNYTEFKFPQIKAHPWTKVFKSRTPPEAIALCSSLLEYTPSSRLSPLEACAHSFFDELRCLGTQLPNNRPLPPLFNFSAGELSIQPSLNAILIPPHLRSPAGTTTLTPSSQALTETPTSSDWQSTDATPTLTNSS

Usually inhibition stands for the change of the read-out against control, counted positive when it falls. What is called MRT is a mean duration of stay, worked out from the concentration-time curve. By Cmax is commonly meant the peak of the concentration-time curve. As a reminder, the AUC(0-inf) is total exposure, with the tail of the curve extrapolated. A low value points to low exposure. In the case of `Cc1ccc(NC(=O)CCc2cccc(-c3cnc4[nH]ccc4c3)c2)cc1C(F)(F)F`, the inhibition result in data set [1] is “Active”. For the same compound, the MRT in data set [2] worked out at 1.76 h. In [3], this compound yielded a Cmax of 498 ng/mL. Also, the total exposure AUC(0-inf) in data set [4] came to 784 ng·h/mL. The inhibition in data set [5] worked out at 10%; in data set [6], 1%; in data set [7], 6%; in [8], 0%; in [9] it was 2%; in data set [10] it was 8%. Further, the inhibition worked out at 0% in [11]; 6% in [12]; 0% in data set [13]; 30% in [14]; 5% in [15]; 0% in [16]. For the same compound, the inhibition in data set [17] came out at 0%; in [18], 10%.
